Assay results: patent US6593319B1, “Fusidic acid derivatives” (Leo Pharmaceutical Products, Ltd. A/S, priority 2001, dated 2003)
In brackets after ≈: the same amount, converted by molar mass.

Experiments:
[1] = tested on: Strep. faecalis ATCC10541; assay: MIC, agar diffusion method (European Pharmacopoeia 3rd Ed.); type: cell-based
Description: (§1) The antibacterial activity of some of these compounds relative to fusidic acid appears from Table 2 showing MIC values for compounds of the invention. The method used is recommended by the European Pharmacopoeia 3rd Ed. (1997) for testing the potency of antibiotics. It is an agar diffusion method where the same volume of the tested solution is added to cavities in agar. The inhibition zones are a function of the concentration of the fusidic acid analogue used. All assays are run with fusidic acid (1) as the reference substance. The results in Table 2 differ from those of Table 1 due to the different experimental methods used.

S. aureus Leo id. CJ232 = assay: as above; type: cell-based; settings: S. aureus Leo id. CJ232, MRSA
Description: as §1

S. aureus Leoid CJ234(R) = assay: as above; type: cell-based; settings: MRSA and Rifampicin resistant
Description: as §1

[2] = tested on: Strep. faecium Leo id. E119(P); assay: as above; type: cell-based; settings: Penicillin resistant
Description: as §1

S. aureus ATCC6538P = assay: as above; type: cell-based
Description: as §1

S. aureus ATCC2977 = assay: as above; type: cell-based
Description: as §1

[3] = tested on: Strep. epidermis A. ATCC12228; assay: as above; type: cell-based
Description: as §1

[4] = tested on: Strep. sp. Gr.B Leo id. EF6; assay: as above; type: cell-based
Description: as §1

Streptococcus - gr.B/61 = assay: MIC, microtitter plates, liquid medium containing broth; type: cell-based; settings: read-out: MIC values (concentrations in μg/ml required for 90% inhibition)
Description: (§2) In vitro investigations have evidenced high potency of compounds of the invention against several bacteria including staphylococci, streptococci, corynebacteriae and mycobacteriae. […] The biological tests are conducted on microtitter plates using liquid medium containing broth.

S. aureus/ATCC 29213 = assay: as above; type: cell-based; settings: Staphylococcus aureus, ATCC 29213 / MSSA, FusS, read-out: MIC values (concentrations in μg/ml required for 90% inhibition)
Description: as §2

S. aureus/1 Aus-pe = assay: as above; type: cell-based; settings: Staphylococcus aureus, FusS, MRSA, read-out: MIC values (concentrations in μg/ml required for 90% inhibition)
Description: as §2

Staphylococcus/379-2 = assay: as above; type: cell-based; settings: Staphylococcus/379-2, coagulase negative, FusR, read-out: MIC values (concentrations in μg/ml required for 90% inhibition)
Description: as §2

S. aureus/54 USA-br = assay: as above; type: cell-based; settings: Staphylococcus aureus, FusR, MSSA, read-out: MIC values (concentrations in μg/ml required for 90% inhibition)
Description: as §2

C. diphteria/62001 = assay: as above; type: cell-based; settings: read-out: MIC values (concentrations in μg/ml required for 90% inhibition)
Description: as §2

[5] = tested on: E. faecalis/V583 P. Cour.; assay: as above; type: cell-based; settings: Enterococcus faecalis, VanR, read-out: MIC values (concentrations in μg/ml required for 90% inhibition)
Description: as §2

N. meningitidis/K1 = assay: as above; type: cell-based; settings: Neisseria meningitidis, read-out: MIC values (concentrations in μg/ml required for 90% inhibition)
Description: as §2

Staphylococcus/291-2 = assay: as above; type: cell-based; settings: Staphylococcus/291-2, coagulase negative, FusS, read-out: MIC values (concentrations in μg/ml required for 90% inhibition)
Description: as §2

[6] = tested on: Streptococcus - gr.A/67011; assay: as above; type: cell-based; settings: read-out: MIC values (concentrations in μg/ml required for 90% inhibition)
Description: as §2

Streptococcus - gr.C/68 = assay: as above; type: cell-based; settings: read-out: MIC values (concentrations in μg/ml required for 90% inhibition)
Description: as §2

Streptococcus - gr.G/59 = assay: as above; type: cell-based; settings: read-out: MIC values (concentrations in μg/ml required for 90% inhibition)
Description: as §2

N. gonorrhoea/C1 = assay: as above; type: cell-based; settings: read-out: MIC values (concentrations in μg/ml required for 90% inhibition)
Description: as §2

M. tuberculosis/R 498 = assay: as above; type: cell-based; settings: Mycobacterium tuberculosis, read-out: MIC values (concentrations in μg/ml required for 90% inhibition)
Description: as §2

P. acnes/1060 = assay: as above; type: cell-based; settings: Cutibacterium acnes, read-out: MIC values (concentrations in μg/ml required for 90% inhibition)
Description: as §2

S. aureus/22 DK = assay: as above; type: cell-based; settings: Staphylococcus aureus, FusS, MSSA, read-out: MIC values (concentrations in μg/ml required for 90% inhibition)
Description: as §2

[7] = Stability in ethanol solution (retained activity); type: physicochemical; settings: solution in ethanol stored at 0° C. for 1 month
[8] = relative to fusidic acid; reduction of C-24/C-25 and C-17/C-20 double bonds; cited from earlier work
[9] = Staphylococcus aureus, read-out: MIC values (concentrations in μg/ml required for 90% inhibition)
[10] = read-out: MIC values (concentrations in μg/ml required for 90% inhibition)

CCO[C@H]1C[C@@]2(C)[C@@H](C[C@@H](O)[C@H]3[C@@]4(C)CC[C@@H](O)[C@@H](C)[C@@H]4CC[C@@]32C)[C@H]1[C@H](CCC=C(C)C)C(=O)O [Compound 123, 16-Deacetoxy-16β-ethoxy-17(S),20(S)-dihydrofusidic Acid]
MIC values (concentrations in μg/ml required for 90% inhibition) [1]: 16 µg/mL | MIC values (concentrations in μg/ml required for 90% inhibition) (S. aureus Leo id. CJ232): 0.005 µg/mL | MIC values (concentrations in μg/ml required for 90% inhibition) (S. aureus Leoid CJ234(R)): 0.007 µg/mL | MIC values (concentrations in μg/ml required for 90% inhibition) [2]: 16 µg/mL | MIC values (concentrations in μg/ml required for 90% inhibition) (S. aureus ATCC6538P): 0.02 µg/mL | MIC values (concentrations in μg/ml required for 90% inhibition) (S. aureus ATCC2977): 0.02 µg/mL | MIC values (concentrations in μg/ml required for 90% inhibition) [3]: 0.5 µg/mL | MIC values (concentrations in μg/ml required for 90% inhibition) [4]: 16 µg/mL

COCO[C@H]1C[C@@]2(C)[C@@H](C[C@@H](O)[C@H]3[C@@]4(C)CC[C@@H](O)[C@@H](C)[C@@H]4CC[C@@]32C)[C@H]1[C@H](CCC=C(C)C)C(=O)O [Compound 128, 16-Deacetoxy-16β-methoxymethoxy-17(S),20(S)-dihydrofusidic acid]
MIC values (concentrations in μg/ml required for 90% inhibition) [1]: 16 µg/mL | MIC values (concentrations in μg/ml required for 90% inhibition) (S. aureus Leo id. CJ232): >64 µg/mL | MIC values (concentrations in μg/ml required for 90% inhibition) (S. aureus Leoid CJ234(R)): >64 µg/mL | MIC values (concentrations in μg/ml required for 90% inhibition) [2]: 16 µg/mL | MIC values (concentrations in μg/ml required for 90% inhibition) (S. aureus ATCC6538P): 0.26 µg/mL | MIC values (concentrations in μg/ml required for 90% inhibition) (S. aureus ATCC2977): 0.19 µg/mL | MIC values (concentrations in μg/ml required for 90% inhibition) [3]: 0.5 µg/mL | MIC values (concentrations in μg/ml required for 90% inhibition) [4]: 16 µg/mL

CC(=O)O[C@H]1C[C@@]2(C)[C@@H](C[C@@H](O)[C@H]3[C@@]4(C)CC[C@@H](O)[C@@H](C)[C@@H]4CC[C@@]32C)/C1=C(\CCC=C(C)C)C(=O)O [Fusidic acid (1), Fusidic acid]
MIC (Streptococcus - gr.B/61): 32 µg/mL (≈ 61.9 µM) | MIC (S. aureus/ATCC 29213): 1 µg/mL (≈ 1.94 µM) | MIC (S. aureus/1 Aus-pe): 1 µg/mL (≈ 1.94 µM) | MIC (Staphylococcus/379-2): 64 µg/mL (≈ 124 µM) | MIC (S. aureus/54 USA-br): 8 µg/mL (≈ 15.5 µM) | MIC (C. diphteria/62001): 0.063 µg/mL (≈ 0.122 µM) | MIC [5]: 16 µg/mL (≈ 31 µM) | MIC (N. meningitidis/K1): 0.25 µg/mL (≈ 0.484 µM) | MIC (Staphylococcus/291-2): 1 µg/mL (≈ 1.94 µM) | MIC [6]: 16 µg/mL (≈ 31 µM) | MIC (Streptococcus - gr.C/68): 2 µg/mL (≈ 3.87 µM) | MIC (Streptococcus - gr.G/59): 4 µg/mL (≈ 7.74 µM) | MIC (N. gonorrhoea/C1): 1 µg/mL (≈ 1.94 µM) | MIC (M. tuberculosis/R 498): > 16 µg/mL | MIC (P. acnes/1060): 0.125 µg/mL (≈ 0.242 µM) | MIC (S. aureus/22 DK): 0.5 µg/mL (≈ 0.968 µM) | retained initial activity [7]: about 70% | MIC ([1]; Enterococcus faecalis, read-out: MIC values (concentrations in μg/ml required for 90% inhibition)): 4.9 µg/mL (≈ 9.48 µM) | MIC (S. aureus Leo id. CJ232; [9]): 0.012 µg/mL (≈ 0.0232 µM) | MIC (S. aureus Leoid CJ234(R); [9]): 0.01 µg/mL (≈ 0.0194 µM) | MIC ([2]; Enterococcus faecium, read-out: MIC values (concentrations in μg/ml required for 90% inhibition)): 2.7 µg/mL (≈ 5.23 µM) | MIC (S. aureus ATCC6538P; [9]): 0.013 µg/mL (≈ 0.0252 µM) | MIC (S. aureus ATCC2977; [9]): 0.01 µg/mL (≈ 0.0194 µM) | MIC [3, 10]: 0.01 µg/mL (≈ 0.0194 µM) | MIC [4, 10]: 4.9 µg/mL (≈ 9.48 µM)

tetrahydrofusidic acid
antibacterial activity [8]: almost complete loss of activity
